The experiment has as its system MV-4-11 cells. As to the kind of experiment: Gene expression microarray analysis (Affymetrix PrimeView) and GSEA. It counts as cell-based, human. Set-up: RFU PODN (11730768_x_at) / Fold change /veh PODN (11730768_x_at) / RFU LINC00158 (11744669_a_at) / Fold change /veh LINC00158 (11744669_a_at) / RFU DUSP10 (11751237_a_at) / Fold change /veh DUSP10 (11751237_a_at) / RFU ID3 (11757404_x_at) / Fold change /veh ID3 (11757404_x_at) / RFU PLEKHG5 (11737974_s_at) / Fold change /veh PLEKHG5 (11737974_s_at) / RFU LRRC4B (11730491_at) / Fold change /veh LRRC4B (11730491_at) / RFU GIMAP4 (11747438_a_at) / Fold change /veh GIMAP4 (11747438_a_at) / RFU KRT8 (11758183_x_at) / Fold change /veh KRT8 (11758183_x_at) / RFU CNN1 (11734310_a_at) / Fold change /veh CNN1 (11734310_a_at) / RFU VPS37D (11726825_at) / Fold change /veh VPS37D (11726825_at) / RFU C10orf10 (11716522_x_at) / Fold change /veh C10orf10 (11716522_x_at) / RFU KIR2DL2 /// KIR2DL4 /// KIR2DL5A /// KIR2DL5B /// KIR2DS1 /// KIR2DS2 /// KIR2DS3 /// KIR2DS4 /// KIR3DL3 /// KIR3DL3 /// KIR3DS1 (11738374_at) / Fold change /veh KIR2DL2 /// KIR2DL4 /// KIR2DL5A /// KIR2DL5B /// KIR2DS1 /// KIR2DS2 /// KIR2DS3 /// KIR2DS4 /// KIR3DL3 /// KIR3DL3 /// KIR3DS1 (11738374_at) / RFU C1QL1 (11718748_at) / Fold change /veh C1QL1 (11718748_at) / RFU TMPRSS4 (11747572_a_at) / Fold change /veh TMPRSS4 (11747572_a_at) / RFU HAMP (11756126_x_at) / Fold change /veh HAMP (11756126_x_at) / RFU RNFT2 (11725882_a_at) / Fold change /veh RNFT2 (11725882_a_at) / RFU NR4A2 (11747474_a_at) / Fold change /veh NR4A2 (11747474_a_at) / RFU ABCC12 (11746883_a_at) / Fold change /veh ABCC12 (11746883_a_at) / RFU TMEM136 (11760407_x_at) / Fold change /veh TMEM136 (11760407_x_at) / RFU CLDN22 /// WWC2 (11732394_at) / Fold change /veh CLDN22 /// WWC2 (11732394_at) / RFU HLA-DPB1 (11760878_x_at) / Fold change /veh HLA-DPB1 (11760878_x_at) / RFU SPINT1 (11716480_a_at) / Fold change /veh SPINT1 (11716480_a_at) / RFU GAP43 (11754022_s_at) / Fold change /veh GAP43 (11754022_s_at) / RFU A4GNT (11735810_at) / Fold change /veh A4GNT (11735810_at) / RFU PRB3 (11715151_x_at) / Fold change /veh PRB3 (11715151_x_at) / RFU TUBB4B (11761932_at) / Fold change /veh TUBB4B (11761932_at) / RFU CAPN14 (11732068_a_at) / Fold change /veh CAPN14 (11732068_a_at) / RFU TMCC2 (11721928_a_at) / Fold change /veh TMCC2 (11721928_a_at) / RFU IRGQ (11745062_a_at) / Fold change /veh IRGQ (11745062_a_at) / RFU FAM174B (11720279_a_at) / Fold change /veh FAM174B (11720279_a_at) / RFU TMPRSS4 (11748680_a_at) / Fold change /veh TMPRSS4 (11748680_a_at) / RFU FAM212B (11763350_a_at) / Fold change /veh FAM212B (11763350_a_at) / RFU PLEKHG5 (11743358_a_at) / Fold change /veh PLEKHG5 (11743358_a_at) / RFU ZSCAN30 (11745921_a_at) / Fold change /veh ZSCAN30 (11745921_a_at) / RFU CMKLR1 (11741424_a_at) / Fold change /veh CMKLR1 (11741424_a_at) / RFU LOC101060620 /// MAPK8IP1 (11723275_at) / Fold change /veh LOC101060620 /// MAPK8IP1 (11723275_at) / RFU SPTSSB (11747773_x_at) / Fold change /veh SPTSSB (11747773_x_at) / RFU PRSS12 (11739890_at) / Fold change /veh PRSS12 (11739890_at) / RFU BIN1 (11741810_x_at) / Fold change /veh BIN1 (11741810_x_at) / RFU WNT11 (11732464_a_at) / Fold change /veh WNT11 (11732464_a_at) / RFU C10orf10 (11716521_a_at) / Fold change /veh C10orf10 (11716521_a_at) / RFU C5orf56 (11738089_at) / Fold change /veh C5orf56 (11738089_at) / RFU CYB561 (11721691_x_at) / Fold change /veh CYB561 (11721691_x_at) / RFU ANKRD19P (11752326_a_at) / Fold change /veh ANKRD19P (11752326_a_at) / RFU OR2T12 /// OR2T33 /// OR2T8 (11738714_s_at) / Fold change /veh OR2T12 /// OR2T33 /// OR2T8 (11738714_s_at) / RFU VCAN (11748164_a_at) / Fold change /veh VCAN (11748164_a_at) / RFU JSRP1 (11732532_at) / Fold change /veh JSRP1 (11732532_at) / RFU KRTAP10-11 (11738290_x_at) / Fold change /veh KRTAP10-11 (11738290_x_at) / RFU MYO3A (11730013_a_at) / Fold change /veh MYO3A (11730013_a_at) / RFU EBF3 (11725865_a_at) / Fold change /veh EBF3 (11725865_a_at) / RFU CAMK2N1 (11719241_x_at) / Fold change /veh CAMK2N1 (11719241_x_at) / RFU C5orf56 (11738088_a_at) / Fold change /veh C5orf56 (11738088_a_at) / RFU OLFML3 (11715873_a_at) / Fold change /veh OLFML3 (11715873_a_at) / RFU LOC100653217 /// NTM (11731650_a_at) / Fold change /veh LOC100653217 /// NTM (11731650_a_at) / RFU MAPK11 (11762145_a_at) / Fold change /veh MAPK11 (11762145_a_at) / RFU FIZ1 (11724087_x_at) / Fold change /veh FIZ1 (11724087_x_at) / RFU OASL (11726364_x_at) / Fold change /veh OASL (11726364_x_at) / RFU SOX15 (11748057_x_at) / Fold change /veh SOX15 (11748057_x_at) / RFU CD79A (11719716_a_at) / Fold change /veh CD79A (11719716_a_at) / RFU HIST1H1D (11736915_at) / Fold change /veh HIST1H1D (11736915_at) / RFU CASKIN2 (11723855_a_at) / Fold change /veh CASKIN2 (11723855_a_at) / RFU LOC730098 (11760151_x_at) / Fold change /veh LOC730098 (11760151_x_at) / RFU OR4N2 (11742367_at) / Fold change /veh OR4N2 (11742367_at) / RFU PRRT2 (11749266_a_at) / Fold change /veh PRRT2 (11749266_a_at) / RFU SNX32 (11753110_a_at) / Fold change /veh SNX32 (11753110_a_at) / RFU CDHR5 (11726645_a_at) / Fold change /veh CDHR5 (11726645_a_at) / RFU RCAN1 (11760418_a_at) / Fold change /veh RCAN1 (11760418_a_at) / RFU FAM167A (11723789_a_at) / Fold change /veh FAM167A (11723789_a_at) / RFU FAM26E (11764081_at) / Fold change /veh FAM26E (11764081_at) / RFU ISYNA1 (11749810_s_at) / Fold change /veh ISYNA1 (11749810_s_at) / RFU ACY1 (11761880_at) / Fold change /veh ACY1 (11761880_at) / RFU 11764098_at / Fold change /veh 11764098_at / RFU SAMD14 (11745864_x_at) / Fold change /veh SAMD14 (11745864_x_at) / RFU NPB (11741838_a_at) / Fold change /veh NPB (11741838_a_at) / RFU TMPRSS6 (11731388_a_at) / Fold change /veh TMPRSS6 (11731388_a_at) / RFU KRTAP10-2 (11738614_at) / Fold change /veh KRTAP10-2 (11738614_at) / RFU ARHGAP8 /// PRR5-ARHGAP8 (11727945_x_at) / Fold change /veh ARHGAP8 /// PRR5-ARHGAP8 (11727945_x_at) / RFU KRTAP5-7 /// NADSYN1 (11734609_at) / Fold change /veh KRTAP5-7 /// NADSYN1 (11734609_at) / RFU RASL12 (11751679_a_at) / Fold change /veh RASL12 (11751679_a_at) / RFU CDKN2B (11736163_a_at) / Fold change /veh CDKN2B (11736163_a_at) / RFU PRF1 (11729649_at) / Fold change /veh PRF1 (11729649_at) / RFU, ZNF638 /// ZNF638-IT1 / Fold change vs veh, ZNF638 /// ZNF638-IT1 / RFU, PANK3 / Fold change vs veh, PANK3 / RFU, SH3YL1 / Fold change vs veh, SH3YL1 / RFU, ZEB2 / Fold change vs veh, ZEB2 / RFU, NRIP1 / Fold change vs veh, NRIP1 / RFU, PTTG1IP / Fold change vs veh, PTTG1IP / RFU, CAPN2 / Fold change vs veh, CAPN2 / RFU, MED14 / Fold change vs veh, MED14 / RFU, SNORA58 / Fold change vs veh, SNORA58 / RFU, C1orf63 / Fold change vs veh, C1orf63 / RFU, LRRFIP1 / Fold change vs veh, LRRFIP1 / RFU, NDUFAF7 / Fold change vs veh, NDUFAF7 / RFU, SLC12A2 / Fold change vs veh, SLC12A2 / RFU, IBTK / Fold change vs veh, IBTK / RFU, ESF1 / Fold change vs veh, ESF1 / Fold change vs veh, TMEM50B / RFU, TAOK1 / Fold change vs veh, TAOK1 / RFU, ACBD3 / Fold change vs veh, ACBD3 / RFU, TMA16 / Fold change vs veh, TMA16 / RFU, RWDD3 / Fold change vs veh, RWDD3 / RFU, BCAT1 / Fold change vs veh, BCAT1 / RFU, EDEM3 / Fold change vs veh, EDEM3 / RFU, TMEM33 / Fold change vs veh, TMEM33 / RFU, WDR75 / Fold change vs veh, WDR75 / RFU, AHCTF1 / Fold change vs veh, AHCTF1 / RFU, TFRC / Fold change vs veh, TFRC / RFU, ZDHHC17 / Fold change vs veh, ZDHHC17 / RFU, NOM1 / Fold change vs veh, NOM1 / RFU, ARL8B / Fold change vs veh, ARL8B / RFU, ZBTB11 / Fold change vs veh, ZBTB11 / RFU, TAMM41 / Fold change vs veh, TAMM41 / RFU, KIAA1704 /// LOC100996395 / Fold change vs veh, KIAA1704 /// LOC100996395 / RFU, ING1 / Fold change vs veh, ING1 / RFU, TRMT61B / Fold change vs veh, TRMT61B / RFU, FUBP3 / Fold change vs veh, FUBP3 / RFU, TP53 / Fold change vs veh, TP53 / RFU, TNKS2 / Fold change vs veh, TNKS2 / RFU, ZFP14 / Fold change vs veh, ZFP14 / RFU, ACTR2 / Fold change vs veh, ACTR2 / RFU, PPP3R1 / Fold change vs veh, PPP3R1 / RFU, PIK3R1 / Fold change vs veh, PIK3R1 / RFU, HNRNPA1 / Fold change vs veh, HNRNPA1 / RFU, RNF170 / Fold change vs veh, RNF170 / RFU, ZNF28 / Fold change vs veh, ZNF28 / RFU, RNGTT / Fold change vs veh, RNGTT / RFU, OGT / Fold change vs veh, OGT / RFU, BRD1 / Fold change vs veh, BRD1 / RFU, MARS / Fold change vs veh, MARS / RFU, ZNF655 / Fold change vs veh, ZNF655 / RFU, FAHD1 / Fold change vs veh, FAHD1 / RFU, BDP1 / Fold change vs veh, BDP1 / RFU, LRRCC1 / Fold change vs veh, LRRCC1 / RFU, ARID1A / Fold change vs veh, ARID1A / RFU, ZNF146 / Fold change vs veh, ZNF146 / RFU, ZNF330 / Fold change vs veh, ZNF330 / RFU, GPN3 / Fold change vs veh, GPN3 / RFU, C9orf123 / Fold change vs veh, C9orf123 / RFU, N4BP2L2 / Fold change vs veh, N4BP2L2 / RFU, ARFIP1 / Fold change vs veh, ARFIP1 / RFU, FAM179B / Fold change vs veh, FAM179B / RFU, BCL10 / Fold change vs veh, BCL10 / RFU, UHRF1BP1L / Fold change vs veh, UHRF1BP1L / RFU, BET1 / Fold change vs veh, BET1 / RFU, CNOT2 / Fold change vs veh, CNOT2 / RFU, ZNF268 / Fold change vs veh, ZNF268 / Fold change vs veh, ZNF507 / RFU, DGCR2 / Fold change vs veh, DGCR2 / RFU, WDSUB1 / Fold change vs veh, WDSUB1 / Fold change vs veh, HSP90B1 /// MIR3652 / RFU, ADSS / Fold change vs veh, ADSS / RFU, GK / Fold change vs veh, GK / RFU, ZNF148 / Fold change vs veh, ZNF148 / RFU, TAF9 / Fold change vs veh, TAF9 / RFU, SLC1A5 / Fold change vs veh, SLC1A5 / RFU, SLMO2 / Fold change vs veh, SLMO2 / RFU, ABCC4 / Fold change vs veh, ABCC4 / RFU, LOC101060439 /// RAP1B / Fold change vs veh, LOC101060439 /// RAP1B / RFU, RFX7 / Fold change vs veh, RFX7 / RFU, GTPBP10 / Fold change vs veh, GTPBP10 / RFU, CNEP1R1 / Fold change vs veh, CNEP1R1 / RFU, BIVM-ERCC5 /// ERCC5 / Fold change vs veh, BIVM-ERCC5 /// ERCC5 / RFU, ILF3 / Fold change vs veh, ILF3 / RFU 11762660_at / Fold change /veh 11762660_at / RFU VCAN (11757783_s_at) / Fold change /veh VCAN (11757783_s_at) / RFU DDX43 (11728927_at) / Fold change /veh DDX43 (11728927_at) / RFU KRT8 (11758188_x_at) / Fold change /veh KRT8 (11758188_x_at) / RFU NKD1 (11759106_at) / Fold change /veh NKD1 (11759106_at) / RFU SRD5A1 (11742802_a_at) / Fold change /veh SRD5A1 (11742802_a_at) / RFU TPSAB1 /// TPSB2 (11721975_s_at) / Fold change /veh TPSAB1 /// TPSB2 (11721975_s_at) / RFU GSTM3 (11746129_a_at) / Fold change /veh GSTM3 (11746129_a_at) / RFU IL23R (11737362_x_at) / Fold change /veh IL23R (11737362_x_at) / RFU TMEM51 (11727254_a_at) / Fold change /veh TMEM51 (11727254_a_at) / RFU PIWIL2 (11732686_x_at) / Fold change /veh PIWIL2 (11732686_x_at) / RFU ORM1 (11744905_x_at) / Fold change /veh ORM1 (11744905_x_at) / RFU CCDC152 (11743942_at) / Fold change /veh CCDC152 (11743942_at) / RFU ECM1 (11717891_a_at) / Fold change /veh ECM1 (11717891_a_at) / RFU IL23R (11748794_a_at) / Fold change /veh IL23R (11748794_a_at) / RFU TNFAIP8L3 (11732012_x_at) / Fold change /veh TNFAIP8L3 (11732012_x_at) / RFU MBOAT4 (11741988_at) / Fold change /veh MBOAT4 (11741988_at) / RFU 11764193_at / Fold change /veh 11764193_at / RFU TMEM53 (11763286_at) / Fold change /veh TMEM53 (11763286_at) / RFU MAGEB2 (11727129_at) / Fold change /veh MAGEB2 (11727129_at) / RFU TMEM200A (11744735_a_at) / Fold change /veh TMEM200A (11744735_a_at) / RFU CCDC152 (11751479_a_at) / Fold change /veh CCDC152 (11751479_a_at) / RFU FAM211A (11726209_a_at) / Fold change /veh FAM211A (11726209_a_at) / RFU RGS16 (11746705_a_at) / Fold change /veh RGS16 (11746705_a_at) / RFU VCAN (11755009_s_at) / Fold change /veh VCAN (11755009_s_at) / RFU RHOB (11743442_s_at) / Fold change /veh RHOB (11743442_s_at) / RFU RGS16 (11720943_a_at) / Fold change /veh RGS16 (11720943_a_at) / RFU RGS16 (11720944_at) / Fold change /veh RGS16 (11720944_at) / RFU, VPS4B / Fold change vs veh, VPS4B / RFU, CREB1 / Fold change vs veh, CREB1 / RFU, DNAJC13 / Fold change vs veh, DNAJC13 / RFU, GNAQ / Fold change vs veh, GNAQ / RFU, CDK5R1 / Fold change vs veh, CDK5R1 / RFU, ZRANB3 / Fold change vs veh, ZRANB3 / RFU, CUL4A / Fold change vs veh, CUL4A / RFU, CCNY / Fold change vs veh, CCNY / RFU, UFL1 / Fold change vs veh, UFL1 / RFU, COG3 / Fold change vs veh, COG3 / RFU, DIAPH2 / Fold change vs veh, DIAPH2 / RFU, SKA2 / Fold change vs veh, SKA2 / RFU, AFF3 / Fold change vs veh, AFF3 / RFU, LMF1 / Fold change vs veh, LMF1 / RFU, IPO11 / Fold change vs veh, IPO11 / RFU, DFFB / Fold change vs veh, DFFB / RFU, FOXP1 / Fold change vs veh, FOXP1 / RFU, CARD8 / Fold change vs veh, CARD8 / RFU, STRN3 / Fold change vs veh, STRN3 / RFU, ADK / Fold change vs veh, ADK / RFU, RASSF2 / Fold change vs veh, RASSF2 / RFU, WIPF1 / Fold change vs veh, WIPF1 / RFU, LARP1B / Fold change vs veh, LARP1B / RFU, RASA1 / Fold change vs veh, RASA1 / RFU, RB1 / Fold change vs veh, RB1 / RFU, PPFIA1 / Fold change vs veh, PPFIA1 / RFU, MAT2A / Fold change vs veh, MAT2A / RFU, CCT5 / Fold change vs veh, CCT5 / RFU, WDR92 / Fold change vs veh, WDR92 / RFU, CUX1 / Fold change vs veh, CUX1 / RFU, TTC7A / Fold change vs veh, TTC7A / RFU, TMEM135 / Fold change vs veh, TMEM135 / RFU, DEPTOR / Fold change vs veh, DEPTOR / RFU, CPM / Fold change vs veh, CPM / RFU, DNAJB6 / Fold change vs veh, DNAJB6 / RFU, CACNA2D3 / Fold change vs veh, CACNA2D3 / RFU, DTX4 / Fold change vs veh, DTX4 / RFU, TFCP2 / Fold change vs veh, TFCP2 / RFU, GMCL1 /// GMCL1P1 / Fold change vs veh, GMCL1 /// GMCL1P1 / RFU, AEBP2 / Fold change vs veh, AEBP2 / RFU, SNHG1 /// SNORD22 /// SNORD25 /// SNORD26 /// SNORD27 /// SNORD28 /// SNORD29 /// SNORD31 / Fold change vs veh, SNHG1 /// SNORD22 /// SNORD25 /// SNORD26 /// SNORD27 /// SNORD28 /// SNORD29 /// SNORD31 / Fold change (Aza/veh), C12orf56 (ProbeSet 11735607_a_at) / Fold change (ACY-1035/veh), C12orf56 (ProbeSet 11735607_a_at) / Fold change (Aza/veh), FGFR1OP (ProbeSet 11751329_s_at) / Fold change (ACY-1035/veh), FGFR1OP (ProbeSet 11751329_s_at) / Fold change (Aza/veh), VPS36 (ProbeSet 11739960_a_at) / Fold change (ACY-1035/veh), VPS36 (ProbeSet 11739960_a_at) / RFU SYPL1 (11715823_x_at) / Fold change /veh SYPL1 (11715823_x_at) / RFU IGFBP7 (11715501_s_at) / Fold change /veh IGFBP7 (11715501_s_at) / RFU REEP3 (11722064_at) / Fold change /veh REEP3 (11722064_at) / RFU IGLL1 (11728026_x_at) / Fold change /veh IGLL1 (11728026_x_at): dose or concentration left out as unconfirmed. The following applies: ProbeSet 11732370_a_at; LIST D.

As for `Nc1ccc(-c2cccs2)cc1NC(=O)c1ccc2c(c1)cc(C1CC1)n2CCN1CCOCC1` [ACY-1035], the “RFU, CUX1” value is 235.11 RFU.

For the origin of these results see paper PMC5218480 (PLoS ONE, 2017).
